Key:
[1] = target: T1, human OX1 receptor (Homo sapiens, UniProt O43613); assay: Measurement of orexin receptor antagonistic activity (calcium fluorescence, FLIPRtetra); type: cell-based; conditions: CHO, 10 μM test compound; CHO cells expressing human OX1 receptor; OX-A 1 nM; read-out: Human Orexin1 receptor inhibition (at 10 μM)
T1 construct: expressed in transfected cells; host or cells: CHO cells
T1 sequence (O43613 1-425): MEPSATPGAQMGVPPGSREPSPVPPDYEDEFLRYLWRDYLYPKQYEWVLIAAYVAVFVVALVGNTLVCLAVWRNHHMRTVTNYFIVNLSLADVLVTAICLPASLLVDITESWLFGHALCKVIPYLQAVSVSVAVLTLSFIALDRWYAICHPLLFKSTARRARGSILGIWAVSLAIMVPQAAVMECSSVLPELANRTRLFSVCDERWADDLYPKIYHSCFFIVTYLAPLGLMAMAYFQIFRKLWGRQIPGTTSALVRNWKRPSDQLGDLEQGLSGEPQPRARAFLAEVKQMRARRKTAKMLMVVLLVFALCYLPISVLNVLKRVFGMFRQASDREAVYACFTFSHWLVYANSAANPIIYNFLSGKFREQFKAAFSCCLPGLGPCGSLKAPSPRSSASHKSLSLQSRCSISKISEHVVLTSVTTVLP
How it was run: (§1)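 CHO cells expressing human OX1 or OX2 receptor, cultured one day. Compound in HBSS/20 mM HEPES/0.1% BSA added, then orexin-A at 1 nM final (OX1) or 0.3 nM final (OX2); calcium fluorescence by FLIPRtetra every 1 s for 2 min.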

[2] = target: T2, human OX2 receptor (Homo sapiens, UniProt O43614); assay: as above; type: cell-based; conditions: CHO, 10 μM test compound; CHO cells expressing human OX2 receptor; OX-A 0.3 nM; read-out: Human Orexin2 receptor inhibition (at 10 μM)
T2 construct: expressed in transfected cells; host or cells: CHO cells
T2 sequence (O43614 1-444): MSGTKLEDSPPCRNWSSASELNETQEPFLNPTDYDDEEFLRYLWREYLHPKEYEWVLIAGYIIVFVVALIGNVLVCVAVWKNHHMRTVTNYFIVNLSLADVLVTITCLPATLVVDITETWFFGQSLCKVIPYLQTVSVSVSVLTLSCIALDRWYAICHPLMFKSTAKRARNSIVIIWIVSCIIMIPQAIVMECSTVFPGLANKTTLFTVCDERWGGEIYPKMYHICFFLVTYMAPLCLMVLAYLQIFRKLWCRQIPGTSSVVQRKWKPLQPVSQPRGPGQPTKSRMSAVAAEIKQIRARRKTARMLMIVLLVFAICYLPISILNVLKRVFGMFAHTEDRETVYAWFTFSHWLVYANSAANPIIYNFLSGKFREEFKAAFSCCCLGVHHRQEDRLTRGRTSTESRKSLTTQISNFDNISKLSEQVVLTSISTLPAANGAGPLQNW
How it was run: as §1

SMILES	inhibition at 10 µM [1]	inhibition at 10 µM [2]
Cc1cc(N2CCN(C(=O)c3cc(C(F)(F)F)ccc3-n3nccn3)CCO2)nc(C)n1 [Example 202, (2-(2,6-dimethylpyrimidin-4-yl)-1,2,5-oxadiazepan-5-yl)(2-(2H-1,2,3-triazol-2-yl)-5-(trifluoromethyl)phenyl)methanone]	17%	102%
CCc1ccc(-n2nccn2)c(C(=O)N2CCON(c3cc(C)nc(C)n3)CC2)c1 [Example 203, (2-(2,6-dimethylpyrimidin-4-yl)-1,2,5-oxadiazepan-5-yl)(5-ethyl-2-(2H-1,2,3-triazol-2-yl)phenyl)methanone]	25%	101%
Cc1cc(N2CCN(C(=O)c3ccc(Cl)cc3-n3nccn3)CCO2)nc(C)n1 [Example 204, (4-chloro-2-(2H-1,2,3-triazol-2-yl)phenyl)(2-(2,6-dimethylpyrimidin-4-yl)-1,2,5-oxadiazepan-5-yl)methanone]	70%	101%
Cc1cc(N2CCN(C(=O)c3ccc(Br)cc3-n3nccn3)C[C@H](C)O2)nc(C)n1 [Example 205, (4-bromo-2-(2H-1,2,3-triazol-2-yl)phenyl)((7S)-2-(2,6-dimethylpyrimidin-4-yl)-7-methyl-1,2,5-oxadiazepan-5-yl)methanone]	82%	100%
Cc1nccc(N2CCN(C(=O)c3ccccc3-c3ncccn3)C[C@H](C)O2)n1 [Example 206, ((7S)-7-methyl-2-(2-methylpyrimidin-4-yl)-1,2,5-oxadiazepan-5-yl)(2-(pyrimidin-2-yl)phenyl)methanone]	28%	100%
COC(=O)c1cc(N2CCN(C(=O)c3cc(Cl)ccc3-n3nccn3)C[C@H](C)O2)nc(C)n1 [Example 207, methyl 6-((7S)-5-(5-chloro-2-(2H-1,2,3-triazol-2-yl)benzoyl)-7-methyl-1,2,5-oxadiazepan-2-yl)-2-methylpyrimidine-4-carboxylate]	25%	81%
CCOC(=O)c1cc(N2CCN(C(=O)c3cc(Cl)ccc3-n3nccn3)C[C@H](C)O2)nc(C)n1 [Example 208, ethyl 6-((7S)-5-(5-chloro-2-(2H-1,2,3-triazol-2-yl)benzoyl)-7-methyl-1,2,5-oxadiazepan-2-yl)-2-methylpyrimidine-4-carboxylate]	8%	14%
Cc1cc(N2CCN(C(=O)c3ccccc3C#N)C[C@H](C)O2)nc(C)n1 [Example 209, 2-(((7S)-2-(2,6-dimethylpyrimidin-4-yl)-7-methyl-1,2,5-oxadiazepan-5-yl)carbonyl)benzonitrile]	-12%	18%
Cc1cc(N2CCN(C(=O)c3c(F)cccc3-n3nccn3)C[C@H](C)O2)nc(C)n1 [Example 210, ((7S)-2-(2,6-dimethylpyrimidin-4-yl)-7-methyl-1,2,5-oxadiazepan-5-yl)(2-fluoro-6-(2H-1,2,3-triazol-2-yl)phenyl)methanone]	51%	97%
Cc1cc(N2CCN(C(=O)c3ccc(Cl)cc3-n3ccnn3)C[C@H](C)O2)nc(C)n1 [Example 211, (4-chloro-2-(1H-1,2,3-triazol-1-yl)phenyl)((7S)-2-(2,6-dimethylpyrimidin-4-yl)-7-methyl-1,2,5-oxadiazepan-5-yl)methanone]	21%	80%
Cc1cc(N2CCN(C(=O)c3ccccc3-c3ncccn3)[C@H](C)CO2)nc(C)n1 [Example 213, ((6R)-2-(2,6-dimethylpyrimidin-4-yl)-6-methyl-1,2,5-oxadiazepan-5-yl)(2-(pyrimidin-2-yl)phenyl)methanone]	47%	102%
Cc1nc(N2CCN(C(=O)c3ccccc3-c3ncccn3)[C@H](C)CO2)cc(C(F)(F)F)n1 [Example 214, ((6R)-6-methyl-2-(2-methyl-6-(trifluoromethyl)pyrimidin-4-yl)-1,2,5-oxadiazepan-5-yl)(2-(pyrimidin-2-yl)phenyl)methanone]	55%	103%

From US10131653B2, “Heterocyclic compound” (TAKEDA PHARMACEUTICAL COMPANY LIMITED, priority 2015, dated 2018)
